Laboratory results from ChEMBL document CHEMBL1127002, “Substituted pyrrolidin-2-one biphenyltetrazoles as angiotensin II antagonists” (Bioorg Med Chem Lett, 1993).
Activity calls are given as the source filed them. The rule behind the calls is not given here.

Legend:
[1] = species: Oryctolagus cuniculus; test: Tested for inhibitory activity against angiotensin II induced contraction in rabbit aortic rings; type: functional; settings: Aorta, read-out: pA2 (converted)
[2] = tested on: Rattus norvegicus; test: Tested for antihypertensive activity in spontaneously hypertensive rats (SHR) after oral administration; A - Compound shows antihypertensive activity.; type: functional, organism-based
[3] = target: T1, Type-1 angiotensin II receptor (Bos taurus, UniProt P25104); test: Concentration that gives 50% inhibition for binding of 125-I-[Sar1, IIe8] angiotensin to Angiotensin II receptor, type 1 in bovine adrenal cortex membrane.; type: cell membranes
T1 sequence (P25104 whole entry): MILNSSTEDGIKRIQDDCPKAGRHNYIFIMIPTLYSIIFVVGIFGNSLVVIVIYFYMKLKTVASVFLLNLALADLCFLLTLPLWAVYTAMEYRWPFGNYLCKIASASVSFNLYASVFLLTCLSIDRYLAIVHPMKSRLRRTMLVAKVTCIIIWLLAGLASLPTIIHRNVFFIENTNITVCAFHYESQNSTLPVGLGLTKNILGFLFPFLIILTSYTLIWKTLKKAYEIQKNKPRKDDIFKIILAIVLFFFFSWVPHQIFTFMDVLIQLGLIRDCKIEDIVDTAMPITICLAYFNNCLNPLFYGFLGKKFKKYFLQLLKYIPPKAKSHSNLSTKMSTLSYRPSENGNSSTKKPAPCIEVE

Row | IC50 [3] [nM] | Compound | Kb [1] [nM] | Activity [2]
1 | – | CCOC(=O)/C=C1\C2C(C(=O)N1Cc1ccc(-c3ccccc3-c3nn[nH]n3)cc1)C1C=CC2(OC)CC1 (centres undefined) | 5.01 | –
2 | – | CCOC(=O)/C=C1\C2C3CCC(CC3)C2C(=O)N1Cc1ccc(-c2ccccc2-c2nn[nH]n2)cc1 (centres undefined) | 10 | A
3 | 60 | CCOC(=O)/C=C1\N(Cc2ccc(-c3ccccc3-c3nn[nH]n3)cc2)C(=O)CC1(C)CC (centres undefined) | 25.1 | –
4 | – | CCOC(=O)/C=C1\C2C3CCC(C3)C2C(=O)N1Cc1ccc(-c2ccccc2-c2nn[nH]n2)cc1 (centres undefined) | 1 | –
5 | 250 | CCOC(=O)/C=C1\N(Cc2ccc(-c3ccccc3-c3nn[nH]n3)cc2)C(=O)CC12CCCC2 | 3.16 | –
6 | 60 | CCOC(=O)/C=C1\N(Cc2ccc(-c3ccccc3-c3nnn[nH]3)cc2)C(=O)CC12CCCCCC2 | – | –
7 | – | CCOC(=O)/C=C1\C2C(C(=O)N1Cc1ccc(-c3ccccc3-c3nn[nH]n3)cc1)C1CCC2C1(c1ccccc1)c1ccccc1 (centres undefined) | > 1000 | –
8 | – | CCOC(=O)/C=C1\C2CC=CCC2C(=O)N1Cc1ccc(-c2ccccc2-c2nn[nH]n2)cc1 (centres undefined) | 31.6 | –
9 | – | CCOC(=O)/C=C1\C2C3C=CC(CCC3)C2C(=O)N1Cc1ccc(-c2ccccc2-c2nn[nH]n2)cc1 (centres undefined) | 39.8 | –
10 | – | CCOC(=O)/C=C1\N(Cc2ccc(-c3ccccc3-c3nn[nH]n3)cc2)C(=O)CC12CCCCCC2 | 3.98 | Active
11 | – | CCOC(=O)/C=C1\C2C3C=CC(CC3)C2C(=O)N1Cc1ccc(-c2ccccc2-c2nn[nH]n2)cc1 (centres undefined) | 6.31 | –
12 | – | CCOC(=O)/C=C1\C2CCCCC2C(=O)N1Cc1ccc(-c2ccccc2-c2nn[nH]n2)cc1 (centres undefined) | 3.98 | –
13 | 100 | CCOC(=O)/C=C1\N(Cc2ccc(-c3ccccc3-c3nn[nH]n3)cc2)C(=O)CC1(CC)CC | 12.6 | –
14 | – | CCOC(=O)/C=C1\C2C(C(=O)N1Cc1ccc(-c3ccccc3-c3nn[nH]n3)cc1)C1CCC2C1(C)C (centres undefined) | 251 | –
15 | 3100 | CCOC(=O)/C=C1/C(C)CC(=O)N1Cc1ccc(-c2ccccc2-c2nn[nH]n2)cc1 (centres undefined) | 316 | –
16 | – | CCOC(=O)/C=C1\C2C3C=CC(C3)C2C(=O)N1Cc1ccc(-c2ccccc2-c2nn[nH]n2)cc1 (centres undefined) | 3.98 | –
17 | 425 | CCCCc1nc(Cl)c(CO)n1Cc1ccc(-c2ccccc2-c2nnn[nH]2)cc1 [LOSARTAN] | 1.58 | –
18 | – | CCOC(=O)/C=C1\C2C3CCC(O3)C2C(=O)N1Cc1ccc(-c2ccccc2-c2nn[nH]n2)cc1 (centres undefined) | 3.98 | –
19 | – | CCOC(=O)/C=C1\C2C3CCCC(CC3)C2C(=O)N1Cc1ccc(-c2ccccc2-c2nn[nH]n2)cc1 (centres undefined) | 20 | A
20 | 140 | CCOC(=O)/C=C1\N(Cc2ccc(-c3ccccc3-c3nnn[nH]3)cc2)C(=O)CC12CCCCC2 | 12.6 | –
